{"source": "patent US20080234226A1", "about": "“Use Of Iron(III) Complex Compounds For The Preparation Of A Medicament For Oral Treatment Of Iron Deficiency States In Patients With Chronic Inflammatory Bowel Disease” (VIFOR (INTERNATIONAL) AG, priority 2005, published 2008)", "key": {"[1]": {"test_system": "patients with chronic inflammatory bowel disease", "assay": "Clinical disease activity, symptoms, compliance and tolerability during oral iron therapy", "format": "in vivo, human", "conditions": "human, in vivo", "experimental": "The status of the clinical disease was recorded before (day 1) and after (day 15) the iron therapy. The clinical disease activity was evaluated in patients with Crohn's disease with the “Harvey-Bradshaw Simple Index of Crohn's Disease Activity” (Harvey, R F., Bradshaw, J M., Lancet, 1980; 1:514). The Harvey-Bradshaw Simple Index is based on 5 parameters: general well-being, abdominal pain, stool frequency, abdominal mass and extraintestinal complications. The maximum score is 25 and scores of ≧5 indicate active Crohn's disease.\nIn patients with colitis ulcerosa, the “Simple Clinical Colitis Activity Index” was recorded (Walmsley, R S., Ayres, R C., Pounder, R E., Allan, R N., Gut 1998; 43; 29-32). The Simple Clinical Colitis Activity Index is based on 6 parameters: general well-being, stool frequency during the day and during the night, urgency of defecation, blood in the stool and extraintestinal complications. The maximum score is 20 and values of ≧4 indicate active colitis ulcerosa.\nThe Harvey-Bradshaw Simple Index and the Simple Clinical Colitis Activity Index are the same in respect of structure and the clinical significance of a given change in the scores. In order to allow the results of patients with Crohn's disease and colitis ulcerosa to be considered together, the activity scores were calculated as the actual score divided by the maximum score.\nAll the patients completed the particular Crohn's Disease Activity Index (CDAI) diary card (Best, W R., Becktel, J M., Singleton, J W., Kern, F. Jr., Gastroenterology 1976; 70:439-444) in the week before the start of the iron therapy and during the two weeks of iron therapy. The CDAI diary card comprises daily recording of general well-being, abdominal pain and the number of liquid or very soft stools. The total of seven daily records gives a score for each symptom. The higher the score, the more the patient is adversely affected. The medicament was administered during the study for 14 days and the mean for the two weeks is therefore used for the analysis. The patients also documented the occurrence of nausea before and during the iron therapy.\nPatients who discontinued treatment with the medicament because of a deterioration in the symptoms were included in the analysis of the clinical disease activity and the symptom scores. Their disease activity scores were increased by two points, and the symptom scores were increased by one point per day."}, "[2]": {"test_system": "patients with chronic inflammatory bowel disease", "assay": "Markers of oxidative stress (plasma, urine) before and after 14 days oral iron therapy", "conditions": "in vivo", "experimental": "(§1) Analysis of the blood, urine and stool and the clinical evaluation of the disease were carried out on day 1 and 15.\n(§2) The tablets were taken in accordance with the manufacturer's recommendations. Patient compliance was defined as the consumption of the tablets handed out, 80% being regarded as satisfactory.\n(§3) Blood samples were taken, after fasting during the night, on the morning of day 1 and day 15.\nUrine samples were collected on the morning of day 1 and day 15 and analysed for creatinine. Butyl-hydroxy-toluene (BHT) was added to 2 ml urine to a final concentration of 20 mM. The samples were then stored at −80° C. until analysed for urine 8-isoprostaglandin F2α (8-iso-PGF2α).\nThe values were analysed using the Wilcoxon test for pair differences, and the median and range are stated. The comparison of ratios was evaluated with the Fisher Exact test. P values of less than 0.05 are considered to be statistically significant. The data were analysed using the GraphPad Prism 4 for Windows statistics software package (GraphPad Software, Inc., San Diego, USA)."}, "[3]": {"test_system": "patients with chronic inflammatory bowel disease", "conditions": "for B-erythrocyte count / B-haematocrit / B-reticulocyte count / Hypochromic red cells (HYPO) / MCH / MCHC / MCV / Reticulocyte haemoglobin (CHr) / B-haemoglobin / S-ferritin / S-iron / S-soluble transferrin receptor / S-total iron binding capacity: mean (SEM); for B-haemoglobin: blood; for B-ESR / B-leukocyte count / B-platelet count / S-CRP: in vivo; for S-ferritin / S-iron / S-soluble transferrin receptor / S-total iron binding capacity: serum", "experimental": "as §1, §2, §3\nThe values were analysed using the Wilcoxon test for pair differences, and the median and range are stated. The comparison of ratios was evaluated with the Fisher Exact test. […] The data were analysed using the GraphPad Prism 4 for Windows statistics software package (GraphPad Software, Inc., San Diego, USA)."}}, "note": "Where two headings read alike, the source gives them in different places. Marks after values point to notes of the source that are not given here."}
{"substance": "iron(III)-polymaltose complex", "values": [{"measurement": "Increased nausea reported", "setting": "[1]", "result": "7/20"}, {"measurement": "change of clinical disease activity indices", "setting": "[1]", "result": "Neither the treatment with iron(II) sulfate (p=0.45) nor the treatment with iron(III)-polymaltose complex (p=0.80) substantially changed the clinical disease activity indices"}, {"measurement": "influence on general wellbeing or abdominal pain score", "setting": "[1]", "result": "Neither iron(II) sulfate nor iron(III)-polymaltose complex had an influence"}, {"measurement": "patients who discontinued the treatment (intolerable bowel movements, abdominal pain and nausea)", "setting": "[1]", "result": "one patient"}, {"measurement": "tolerability of the iron therapy", "setting": "[1]", "result": "good tolerability"}, {"measurement": "P-beta-carotene", "setting": "[2]", "result": "0.59 (0.13) μmol/l"}, {"measurement": "P-cysteinyl-glycine", "setting": "[2]", "result": "18.7 (0.9) μmol/l"}, {"measurement": "P-glutathione", "setting": "[2]", "result": "5.22 (0.30) μmol/l"}, {"measurement": "P-homocysteine", "setting": "[2]", "result": "6.53 (1.16) μmol/l"}, {"measurement": "P-malondialdehyde", "setting": "[2]", "result": "275 (21) nmol/l"}, {"measurement": "P-vitamin A", "setting": "[2]", "result": "1.6 (0.1) μmol/l"}, {"measurement": "P-vitamin E", "setting": "[2]", "result": "29.3 (1.6) μmol/l"}, {"measurement": "change in plasma MDA values", "setting": "[2]", "result": "did not significantly change"}, {"measurement": "change in urine iso-PGF2α values", "setting": "[2]", "result": "did not significantly change"}, {"measurement": "P-beta-carotene", "setting": "[2]; po", "result": "0.57 (0.09) μmol/l"}, {"measurement": "P-cysteinyl-glycine", "setting": "[2]; po", "result": "18.5 (1.1) μmol/l"}, {"measurement": "P-glutathione", "setting": "[2]; po", "result": "5.43 (0.43) μmol/l"}, {"measurement": "P-homocysteine", "setting": "[2]; po", "result": "6.04 (0.94) μmol/l"}, {"measurement": "P-malondialdehyde", "setting": "[2]; po", "result": "300 (19) nmol/l"}, {"measurement": "P-vitamin A", "setting": "[2]; po", "result": "1.9 (0.3) μmol/l"}, {"measurement": "P-vitamin E", "setting": "[2]; po", "result": "28.3 (1.7) μmol/l"}, {"measurement": "increase of blood haemoglobin", "setting": "[3]; 14 days treatment", "result": "Neither iron(II) sulfate nor iron(III)-polymaltose complex increased the blood haemoglobin"}, {"measurement": "B-erythrocyte count", "setting": "[3]; after 14 days oral treatment", "result": "4.7 (0.1) 10^12/l"}, {"measurement": "B-haematocrit", "setting": "[3]; after 14 days oral treatment", "result": "40 (1) %"}, {"measurement": "B-reticulocyte count", "setting": "[3]; after 14 days oral treatment", "result": "0.075 (0.008)* 10^12/l"}, {"measurement": "Hypochromic red cells (HYPO)", "setting": "[3]; after 14 days oral treatment", "result": "10.6 (2.8) %"}, {"measurement": "MCH", "setting": "[3]; after 14 days oral treatment", "result": "27 (0.7) pg"}, {"measurement": "MCHC", "setting": "[3]; after 14 days oral treatment", "result": "31.2 (0.3) g/dl"}, {"measurement": "MCV", "setting": "[3]; after 14 days oral treatment", "result": "85 (1.6) fl"}, {"measurement": "Reticulocyte haemoglobin (CHr)", "setting": "[3]; after 14 days oral treatment", "result": "29.5 (0.7) pg"}, {"measurement": "B-erythrocyte count", "setting": "[3]; before treatment", "result": "4.7 (0.1) 10^12/l"}, {"measurement": "B-haematocrit", "setting": "[3]; before treatment", "result": "39 (1) %"}, {"measurement": "B-reticulocyte count", "setting": "[3]; before treatment", "result": "0.059 (0.006) 10^12/l"}, {"measurement": "Hypochromic red cells (HYPO)", "setting": "[3]; before treatment", "result": "10.3 (3.0) %"}, {"measurement": "MCH", "setting": "[3]; before treatment", "result": "27 (0.7) pg"}, {"measurement": "MCHC", "setting": "[3]; before treatment", "result": "31.6 (0.3) g/dl"}, {"measurement": "MCV", "setting": "[3]; before treatment", "result": "84 (1.8) fl"}, {"measurement": "Reticulocyte haemoglobin (CHr)", "setting": "[3]; before treatment", "result": "29.1 (0.8) pg"}, {"measurement": "B-haemoglobin", "setting": "[3]; after 14 days oral treatment", "result": "12.5 (0.3) g/dl"}, {"measurement": "B-haemoglobin", "setting": "[3]; before treatment", "result": "12.5 (0.3) g/dl"}, {"measurement": "B-ESR", "setting": "[3]", "result": "22 (3) mm/h"}, {"measurement": "B-leukocyte count", "setting": "[3]", "result": "6.9 (0.6) 10^9/l"}, {"measurement": "B-platelet count", "setting": "[3]", "result": "347 (18) 10^9/l"}, {"measurement": "S-CRP", "setting": "[3]", "result": "12 (3) mg/l"}, {"measurement": "B-ESR", "setting": "[3]; po", "result": "20 (3)* mm/h"}, {"measurement": "B-leukocyte count", "setting": "[3]; po", "result": "7.0 (0.7) 10^9/l"}, {"measurement": "B-platelet count", "setting": "[3]; po", "result": "343 (21) 10^9/l"}, {"measurement": "S-CRP", "setting": "[3]; po", "result": "11 (2) mg/l"}, {"measurement": "increase in blood reticulocyte count", "setting": "[3]; mean of differences after vs before 14 days treatment", "result": "1.6e+10", "unit": "L⁻¹"}, {"measurement": "S-ferritin", "setting": "[3]; after 14 days oral treatment", "result": "13 (2) μg/l"}, {"measurement": "S-iron", "setting": "[3]; after 14 days oral treatment", "result": "8.9 (1.5) μmol/l"}, {"measurement": "S-soluble transferrin receptor", "setting": "[3]; after 14 days oral treatment", "result": "2.03 (0.21) mg/l"}, {"measurement": "S-total iron binding capacity", "setting": "[3]; after 14 days oral treatment", "result": "77 (2) μmol/l"}, {"measurement": "S-ferritin", "setting": "[3]; before treatment", "result": "13 (2) μg/l"}, {"measurement": "S-iron", "setting": "[3]; before treatment", "result": "8.8 (0.8) μmol/l"}, {"measurement": "S-soluble transferrin receptor", "setting": "[3]; before treatment", "result": "2.08 (0.24) mg/l"}, {"measurement": "S-total iron binding capacity", "setting": "[3]; before treatment", "result": "77 (2) μmol/l"}]}
